{"source": "patent US10858373B2", "about": "“Heterocyclic spiro compounds as MAGL inhibitors” (Pfizer Inc., priority 2017, dated 2020)", "key": {"[1]": {"target": "T1, human recombinant Monoacylglycerol Lipase (Homo sapiens (Human), UniProt Q99685)", "T1 sequence (Q99685 whole entry)": "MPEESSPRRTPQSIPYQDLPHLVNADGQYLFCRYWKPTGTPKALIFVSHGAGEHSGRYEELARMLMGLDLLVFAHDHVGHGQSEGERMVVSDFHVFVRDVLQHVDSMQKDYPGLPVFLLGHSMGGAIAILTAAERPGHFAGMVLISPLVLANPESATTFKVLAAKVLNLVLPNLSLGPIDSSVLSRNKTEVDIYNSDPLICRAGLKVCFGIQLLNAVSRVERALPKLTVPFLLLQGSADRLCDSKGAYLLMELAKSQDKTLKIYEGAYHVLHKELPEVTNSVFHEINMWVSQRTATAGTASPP", "assay": "MAGL inactivation (enzyme progress curves, kinact/KI)", "assay_type": "biochemical", "settings": "from plot of Kobs vs. compound concentration; T=0 min protocol; geometric mean of 2-4 determinations"}, "[2]": {"target": "T1, human recombinant Monoacylglycerol Lipase", "assay": "MAGL Enzymatic Assay (fluorogenic substrate 7-HCA), IC50", "assay_type": "biochemical", "settings": "geometric mean of 2-4 determinations unless otherwise indicated", "description": "An equal volume of 7-HCA in assay buffer with 10% DMSO was added either immediately (T=0 min) or after a 30 minute incubation (T=30 min) to initiate the reaction. […] After these dilutions, the final concentration of the test compound ranged from 3 μM to 0.03 nM. […] IC50 values were generated based on a four parameter fit model using ABASE software from IDBS."}}, "note": "Read-outs that look alike come from different tables or passages of the source."}
{"molecule": "CN(C(=O)C(C)(C)C)C1COC2(CCN(C(=O)ON3C(=O)CCC3=O)CC2)C1", "note": "(stereo not drawn) [Example 51, N-(8-{[(2,5-dioxopyrrolidin-1-yl)oxy]carbonyl}-1-oxa-8-azaspiro[4.5]dec-3-yl)-N,2,2-trimethylpropanamide]", "values": [{"measurement": "MAGL Kinact/Kl", "setting": "[1]", "value": "3290 1/s per M"}, {"measurement": "IC50", "setting": "[2]; substrate added after a 30 minute incubation (T=30 min), read-out: MAGL (T = 30 min) IC50", "value": "> 247", "unit": "nM"}, {"measurement": "IC50", "setting": "[2]; substrate added immediately (T=0 min), read-out: MAGL (T = 0 min) IC50", "value": "> 692", "unit": "nM"}]}
